According to PMC6371959 (Antiviral Research, 2018):
Where two headings read alike, the source gives them in different places.

How the values were obtained:
[1] = test system: T7FFLuc control (T7 RNA polymerase driven firefly luciferase); test: cells; format: cell-based; conditions: BSR-T7, read-out: EC50 (T7FFLuc control)
in vitro [2] = conditions: hamster, CC50 (reduction in cell viability, MTT)
EBOV minigenome (WT NP) [3] = test: microbe, parasite or virus in culture; conditions: Zaire ebolavirus; for EC50: BSR-T7, read-out: EC50 (reduction in luciferase, EBOV minigenome)
EBOV minigenome (WT NP) [4] = test: in vitro; conditions: hamster
influenza NP = conditions: cited from earlier work
Huh7-Lunet-T7 cells = conditions: human
[5] = test system: Bunyamwera virus (BUNV) minigenome; test: microbe, parasite or virus in culture; format: cell-based; conditions: BSR-T7, read-out: EC50 (BUNV minigenome control)
EBOV minigenome (WT NP) [6] = test: microbe, parasite or virus in culture; format: cell-based, Ebola virus (EBOV), Makona strain; conditions: Zaire ebolavirus, read-out: EC50 (reduction in luciferase, EBOV minigenome)
in vitro [7] = conditions: human, CC50 (reduction in cell viability, MTT)
[8] = test system: T7FFLuc control (T7 RNA polymerase driven firefly luciferase); test: cells; format: cell-based; conditions: read-out: EC50 (T7FFLuc control)

O=C(c1cccc(/C=C2\SC(=O)N(Cc3cccc(F)c3)C2=O)c1)N1CCN(c2ccccn2)CC1 [MCCB4-8]
EC50 [1]: > 100 µM
CC50 (in vitro [2]): 46.5 µM
EC50 (EBOV minigenome (WT NP) [3]): 11.2 µM
selectivity ratio (EBOV minigenome (WT NP) [4]): 4

O=C(c1cccc(/C=C2\SC(=O)N(Cc3ccc(F)cc3)C2=O)c1)N1CCN(c2ccccn2)CC1 [MCCB4-12]
EC50 [1]: 49.5 µM
CC50 (in vitro [2]): 64.8 µM
EC50 (EBOV minigenome (WT NP) [3]): 8.8 µM
selectivity ratio (EBOV minigenome (WT NP) [4]): 6.5

Cc1onc(-c2ccccc2)c1C(=O)N1CCN(c2ccc([N+](=O)[O-])cc2Cl)CC1 [Nucleozin]
EC50 (influenza, NP aggregation) (influenza NP): nM range

O=C(c1cccc(/C=C2\SC(=O)N(Cc3ccccc3)C2=O)c1)N1CCN(c2ccccn2)CC1 [MCCB4]
CC50 (Huh7-Lunet-T7 cells): 43.2 µM
EC50 [5]: > 100 µM
EC50 [1]: > 100 µM
CC50 (in vitro [2]): > 100 µM
EC50 (EBOV minigenome (WT NP) [3]): 4.8 µM
EC90 (EBOV minigenome (WT NP) [3]; BSR-T7, read-out: EC90 (EBOV minigenome)): 49 µM
inhibition at 4.8 µM (EBOV minigenome (WT NP) [3]; BSR-T7, read-out: inhibition of luciferase (time course)): 50%
EC50 (EBOV minigenome (WT NP) [6]): 1.5 µM
CC50 (in vitro [7]): 48.8 µM
EC50 [8]: 30.8 µM
